Experimental data taken from patent publication EP0130554A1, “Novel, physiologically active substance, process for production thereof and pharmaceutical composition containing the same” (KYOWA HAKKO KOGYO CO., LTD., priority 1983, dated 1985).

Key:
[1] = Solubility in various solvents; format: physicochemical
[2] = tested on: adrenergic receptor; assay: Agonistic/antagonistic activity on adrenergic receptor
[3] = tested on: Atria; assay: Inhibition of isoproterenol-induced positive chronotropic effect in spontaneously beating isolated atria (organ bath); format: cell-based, guinea pigs; settings: Cavia porcellus, 0.5 h; MY336-a 30 µg/ml, added 30 minutes before isoproterenol hydrochloride 10^-9 g/ml; atrial rate, isolated guinea pig atria; read-out: blocked the positive chronotropic effect induced by isoproterenol hydrochloride
Method: Method: • Atria were rapidly isolated from guinea pigs (body weight: 500 - 700G) and mounted in an organ bath. The bath was filled with 30 ml oxygenated (95% 02, 5% C02) Krebs-Henseleit's solution at 31il°C. Atria were allowed to beat spontaneously and the contractions were isometrically recorded using force- displacement transducers. Resting force was adjusted to 0.5g. Then, atrial rate was measured. Then, a solution of isoproterenol hydrochloride in a very small amount of water was added thereto to make the isoproterenol hydrochloride concentration to be 10-^9 g/ml, and atrial rate was measured.
The solution was discarded and the bath was filled with krebs-Henseleit's solution, and allowed to stand until the atrial rate was brought back.
Then, a solution of MY336-a in a very small amount of 50% ethanol was added thereto to make the MY336-a concentration to be 30 µg/ml, and 30 minutes thereafter, a solution of isoproterenol hydrochloride in a very small amount of water was added thereto to make the isoproterenol hydrochloride concentration to be 10-^9 g/ml, and atrial rate was measured.

Solubility ([1]; in acetone, hexane and ether): sparingly soluble
Solubility ([1]; in acidic water): readily soluble
Solubility ([1]; in water and methanol): soluble
agonistic activity on adrenergic receptor [2]: no agonistic activity
antagonistic activity on adrenergic receptor [2]: has an antagonistic activity
Structure (SMILES): COc1c(C)cc2c(c1O)C(CO)NC(CO)C2 (stereo not drawn) [MY336-a]
inhibition at 30 µg/mL [3]: 84.9%
